Values quoted from earlier work as cited in patent publication US20070225258A1, “COMPOSITIONS COMPRISING BISPHOSPHONATE AND AN ANTIFOLATE” (PROPRIUS PHARMACEUTICALS, INC., priority 2006, published 2007).

Tested on: patients with RA

CN(Cc1cnc2nc(N)nc(N)c2n1)c1ccc(C(=O)N[C@@H](CCC(=O)O)C(=O)O)cc1 [methotrexate]
Proportion of RA patients in whom treatment is effective: effective in only one in three patients
